Measurements taken from ChEMBL document CHEMBL1134205, “Development of novel telomerase inhibitors based on a bisindole unit” (Bioorg Med Chem Lett, 2001).

Key:
[1] = target: T1, Telomerase reverse transcriptase (Homo sapiens, UniProt O14746); test: Inhibition ratio of human telomerase was determined by stretch PCR assay with use of 100 uM of the ligand
[2] = target: T1, Telomerase reverse transcriptase; test: Inhibitory concentration against human telomerase

T1 sequence (O14746 whole entry): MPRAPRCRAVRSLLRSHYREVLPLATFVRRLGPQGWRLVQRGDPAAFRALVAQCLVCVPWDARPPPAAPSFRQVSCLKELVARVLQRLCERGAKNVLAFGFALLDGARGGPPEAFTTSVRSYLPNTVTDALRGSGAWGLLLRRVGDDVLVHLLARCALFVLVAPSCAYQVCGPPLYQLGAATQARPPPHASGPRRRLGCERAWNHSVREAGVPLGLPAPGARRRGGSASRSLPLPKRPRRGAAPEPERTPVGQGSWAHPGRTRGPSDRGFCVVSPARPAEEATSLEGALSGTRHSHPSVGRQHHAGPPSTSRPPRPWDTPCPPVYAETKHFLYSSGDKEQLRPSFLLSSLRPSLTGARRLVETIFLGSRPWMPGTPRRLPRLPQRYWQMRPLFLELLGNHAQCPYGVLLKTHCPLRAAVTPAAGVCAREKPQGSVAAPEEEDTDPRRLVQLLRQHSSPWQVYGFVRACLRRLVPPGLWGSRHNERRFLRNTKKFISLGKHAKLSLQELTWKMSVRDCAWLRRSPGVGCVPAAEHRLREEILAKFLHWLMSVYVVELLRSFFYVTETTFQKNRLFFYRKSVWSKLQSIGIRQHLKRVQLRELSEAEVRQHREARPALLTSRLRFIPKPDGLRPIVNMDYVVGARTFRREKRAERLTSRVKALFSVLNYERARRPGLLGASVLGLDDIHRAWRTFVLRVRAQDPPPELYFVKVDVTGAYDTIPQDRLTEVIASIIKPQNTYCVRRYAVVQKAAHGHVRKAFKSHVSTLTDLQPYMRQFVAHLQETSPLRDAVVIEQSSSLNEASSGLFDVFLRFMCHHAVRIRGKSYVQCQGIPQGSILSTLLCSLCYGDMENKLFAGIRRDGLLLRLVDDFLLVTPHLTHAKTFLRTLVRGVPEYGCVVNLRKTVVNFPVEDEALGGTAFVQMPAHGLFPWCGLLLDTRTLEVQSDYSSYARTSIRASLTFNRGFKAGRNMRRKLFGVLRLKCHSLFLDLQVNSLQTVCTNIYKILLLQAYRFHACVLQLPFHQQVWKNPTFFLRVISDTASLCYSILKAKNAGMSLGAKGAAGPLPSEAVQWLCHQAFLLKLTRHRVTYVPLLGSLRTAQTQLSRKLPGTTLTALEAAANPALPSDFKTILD

inhibition [1] [%] | IC50 [2] [µM] | SMILES
75 | 67 | O=C(O)CCCCCCCCCCCNC(=O)Cc1cn(CCCOC2CCCCC2)c2ccccc12
100 | 20 | Cc1cn(CCCn2cc(CC(=O)NCCCCCCCCCCCC(=O)O)c3ccccc32)c2ccccc12
7 | > 100 | Cc1cn(CCn2cc(CC(=O)NCCCCCCCCCCCC(=O)O)c3ccccc32)c2ccccc12
– | > 100 | N#CCCOP(=O)(O)OCCCCCCCCCCCCNC(=O)Cc1cn(CCn2ccc3cc(Cl)ccc32)c2ccccc12
– | 4.2 | O=C(Cc1cn(CCCn2cccc2)c2ccccc12)NCCCCCCCCCCCOP(=O)(O)c1ccccc1Cl
– | 2.5 | O=C(Cc1cn(CCn2ccc3cc(Cl)ccc32)c2ccccc12)NCCCCCCCCCCCCOP(=O)(O)Oc1cccc(Cl)c1
0 | – | O=C(O)CCCCCCCCCCCNC(=O)Cc1cn(CCOc2ccccc2)c2ccccc12
– | > 100 | O=C(O)CCCCCCCCCCCNC(=O)COc1c(-c2cc3ccccc3[nH]2)[nH]c2ccccc12
– | 6.7 | O=C(Cc1cn(CCn2ccc3cc(Cl)ccc32)c2ccccc12)NCCCCCCCCCCCCOP(=O)(O)Oc1ccccc1
62 | 62 | O=C(O)CCCCCCCCCCCNC(=O)Cc1c2n(c3ccccc13)CCn1c-2cc2ccccc21
– | 8.7 | O=C(Cc1cn(CCn2ccc3cc(Cl)ccc32)c2ccccc12)NCCCCCCCCCCCCOP(=O)(O)OC1CCCCC1
0 | > 100 | O=C(O)CCCCCCCCCCCNC(=O)Cc1cn(CCCn2cccc2)c2ccccc12
77 | 41 | O=C(O)CCCCCCCCCCCNC(=O)Cc1cn(CCn2ccc3ccccc32)c2ccccc12
46 | 92 | O=C(O)CCCCCCCCCCCNC(=O)Cc1cn(CCCn2ccc3ccccc32)c2ccccc12
75 | 33 | O=C(O)CCCCCCCCCCCNC(=O)Cc1cn(CCCOc2ccccc2)c2ccccc12
13 | > 100 | O=C(O)CCCCCCCCCCCNC(=O)Cc1cn(CCCN2CCCC2)c2ccccc12
82 | 50 | Cc1c2n(c3ccccc13)CCCn1c-2c(CC(=O)NCCCCCCCCCCCC(=O)O)c2ccccc21
65 | 35 | O=C(O)CCCCCCCCCCCNC(=O)Cc1cn(CCOc2cccc3ccccc23)c2ccccc12

SMILES | inhibition [1] [%] | IC50 [2] [µM]
Cc1cn(CCCn2cc(CC(=O)NCCCCCCCCCCCCOP(=O)(OCCC#N)Oc3cccc(Cl)c3)c3ccccc32)c2ccccc12 (configuration not stated) | – | > 100
Cc1cn(CCCn2cc(CC(=O)NCCCCCCCCCCCCOP(=O)(O)Oc3cccc(Cl)c3)c3ccccc32)c2ccccc12 | – | 3.4
N#CCCOP(=O)(OCCCCCCCCCCCCNC(=O)Cc1cn(CCn2ccc3cc(Cl)ccc32)c2ccccc12)Oc1cccc(Cl)c1 (configuration not stated) | – | > 100
